In US9725465B2, “Biaryl acetamide compounds and methods of use thereof” (Ambit Biosciences Corporation, priority 2013, dated 2017) one finds Kd and IC50 data, which are given here for 22 compounds.

For one assay, the target named is KIT kinase (Homo sapiens (Human), UniProt P10721). Put plainly: Competition binding assay (Kd), KIT. The settings on record: competition binding assay. The method in brief:
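Kinase, as T7 phage fusion or HEK-293-expressed DNA-tagged protein, competed off immobilised ligand beads by test compound (eleven-point threefold dilutions, from 100× DMSO stocks). Eluted kinase quantified by qPCR to derive Kd; DMSO used as control.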

The next assay addresses FLT3-ITD (Homo sapiens (Human), UniProt P36888, INS600HVDFREYEYD). Kind of assay: pFLT3 MSD assay, Ba/F3 FLT3-ITD. The format is cell-based. The following applies: Ba/F3 FLT3-ITD cells, 2 hours, read-out: BaF3-FLT3-ITD pFlt3 IC50.
Another assay has as its target FLT3 kinase (Homo sapiens (Human), UniProt P36888). Kind of assay: Competition binding assay (Kd), FLT3. The following applies: competition binding assay.

Each structure is given as a SMILES string.

Sequence of FLT3 kinase (P36888 27-993): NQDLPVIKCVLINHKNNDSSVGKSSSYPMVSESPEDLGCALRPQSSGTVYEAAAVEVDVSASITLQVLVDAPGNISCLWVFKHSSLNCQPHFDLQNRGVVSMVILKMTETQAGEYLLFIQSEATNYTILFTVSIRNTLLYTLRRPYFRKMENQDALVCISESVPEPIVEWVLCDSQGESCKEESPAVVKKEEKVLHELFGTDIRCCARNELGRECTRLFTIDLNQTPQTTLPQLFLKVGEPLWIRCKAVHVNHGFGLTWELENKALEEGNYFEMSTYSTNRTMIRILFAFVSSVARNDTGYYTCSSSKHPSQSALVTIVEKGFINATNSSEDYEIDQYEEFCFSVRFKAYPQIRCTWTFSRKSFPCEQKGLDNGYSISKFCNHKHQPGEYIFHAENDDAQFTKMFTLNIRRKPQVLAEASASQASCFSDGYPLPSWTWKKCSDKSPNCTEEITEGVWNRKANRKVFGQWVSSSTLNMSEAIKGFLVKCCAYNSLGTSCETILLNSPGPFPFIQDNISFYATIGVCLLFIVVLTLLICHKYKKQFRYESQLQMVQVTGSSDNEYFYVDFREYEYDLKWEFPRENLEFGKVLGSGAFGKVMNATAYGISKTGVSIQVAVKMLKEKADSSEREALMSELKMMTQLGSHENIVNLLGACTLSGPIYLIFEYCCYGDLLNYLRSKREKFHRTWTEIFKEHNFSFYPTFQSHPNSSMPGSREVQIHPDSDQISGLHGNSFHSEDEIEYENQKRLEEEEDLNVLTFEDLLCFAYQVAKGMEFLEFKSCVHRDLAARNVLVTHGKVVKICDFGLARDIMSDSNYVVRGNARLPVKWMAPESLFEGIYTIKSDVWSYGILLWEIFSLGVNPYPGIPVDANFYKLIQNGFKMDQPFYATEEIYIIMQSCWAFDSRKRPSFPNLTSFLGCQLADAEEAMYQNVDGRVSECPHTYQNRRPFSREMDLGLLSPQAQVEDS
Sequence of KIT kinase (P10721 26-976): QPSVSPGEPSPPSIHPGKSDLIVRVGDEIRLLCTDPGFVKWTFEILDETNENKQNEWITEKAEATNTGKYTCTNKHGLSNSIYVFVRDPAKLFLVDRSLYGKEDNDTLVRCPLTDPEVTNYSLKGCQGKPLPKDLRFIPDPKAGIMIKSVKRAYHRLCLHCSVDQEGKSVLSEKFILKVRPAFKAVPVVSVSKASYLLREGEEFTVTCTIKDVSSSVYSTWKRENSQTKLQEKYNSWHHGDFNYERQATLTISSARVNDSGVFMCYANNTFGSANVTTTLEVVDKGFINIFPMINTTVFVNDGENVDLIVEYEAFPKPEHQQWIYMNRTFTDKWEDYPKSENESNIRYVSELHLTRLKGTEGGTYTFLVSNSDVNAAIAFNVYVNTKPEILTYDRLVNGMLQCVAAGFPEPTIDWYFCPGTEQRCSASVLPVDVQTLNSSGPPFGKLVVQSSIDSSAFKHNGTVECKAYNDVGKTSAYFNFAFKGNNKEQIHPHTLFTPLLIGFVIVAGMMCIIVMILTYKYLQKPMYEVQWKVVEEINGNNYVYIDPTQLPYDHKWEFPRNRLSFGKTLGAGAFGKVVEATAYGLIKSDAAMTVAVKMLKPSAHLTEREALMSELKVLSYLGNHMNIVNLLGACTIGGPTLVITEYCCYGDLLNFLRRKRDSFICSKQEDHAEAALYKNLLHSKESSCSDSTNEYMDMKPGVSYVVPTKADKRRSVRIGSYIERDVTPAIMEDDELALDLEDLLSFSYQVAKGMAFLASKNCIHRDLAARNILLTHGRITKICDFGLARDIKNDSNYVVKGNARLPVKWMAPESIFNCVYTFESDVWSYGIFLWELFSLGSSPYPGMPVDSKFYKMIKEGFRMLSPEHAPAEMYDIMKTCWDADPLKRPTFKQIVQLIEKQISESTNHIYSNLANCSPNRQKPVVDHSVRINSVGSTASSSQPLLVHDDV
Sequence of FLT3-ITD (P36888 other isoform, or with tags, fused parts or gaps limits assumed, stated change not applied): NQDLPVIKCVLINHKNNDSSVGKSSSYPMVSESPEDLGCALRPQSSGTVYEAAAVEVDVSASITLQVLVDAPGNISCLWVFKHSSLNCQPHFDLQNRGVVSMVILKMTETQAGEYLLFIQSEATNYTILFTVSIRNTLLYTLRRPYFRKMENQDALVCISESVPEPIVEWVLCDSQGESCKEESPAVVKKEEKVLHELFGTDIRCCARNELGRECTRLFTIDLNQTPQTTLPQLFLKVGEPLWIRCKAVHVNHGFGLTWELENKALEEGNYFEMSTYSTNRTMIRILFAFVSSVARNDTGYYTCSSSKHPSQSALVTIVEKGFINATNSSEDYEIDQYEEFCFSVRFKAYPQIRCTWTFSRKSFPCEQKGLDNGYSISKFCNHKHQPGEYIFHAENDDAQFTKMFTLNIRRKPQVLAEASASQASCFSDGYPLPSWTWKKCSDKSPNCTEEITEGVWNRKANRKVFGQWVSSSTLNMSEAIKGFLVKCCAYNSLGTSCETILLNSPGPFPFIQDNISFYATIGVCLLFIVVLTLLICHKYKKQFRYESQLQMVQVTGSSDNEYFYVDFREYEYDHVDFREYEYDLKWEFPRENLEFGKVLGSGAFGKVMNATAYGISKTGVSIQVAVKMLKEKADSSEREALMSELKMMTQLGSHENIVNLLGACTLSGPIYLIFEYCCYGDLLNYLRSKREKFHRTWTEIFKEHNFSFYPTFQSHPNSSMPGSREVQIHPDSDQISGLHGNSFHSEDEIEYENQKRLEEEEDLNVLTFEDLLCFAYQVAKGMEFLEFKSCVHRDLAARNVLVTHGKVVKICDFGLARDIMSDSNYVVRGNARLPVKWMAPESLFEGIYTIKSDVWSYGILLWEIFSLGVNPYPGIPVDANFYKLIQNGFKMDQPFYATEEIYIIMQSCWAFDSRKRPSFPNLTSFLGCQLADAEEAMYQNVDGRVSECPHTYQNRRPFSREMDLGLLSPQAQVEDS
Procedure for FLT3-ITD: In certain other embodiments, the compounds disclosed herein are tested in a FLT3 phosphorylation assay to determine their cellular potency against one or both of FLT3-ITD and FLT3 tyrosine kinase domain mutants. In certain embodiments, the FLT3 phosphorylation assay assesses the potency of compounds as FLT3 inhibitors by measuring the reduction in formation of phosphorylated FLT3 in the cells.
Gene constructs containing the human FLT3 sequences FLT3-ITD, FLT3-ITD-F691L, FLT3-ITD-D835V and FLT3-D835V were synthesized by reverse translation of the human protein sequences, with codons optimized for mammalian expression. Sequence of the internal tandem duplication (ITD) was based on the MV4-11 ITD sequence. […] Viruses were transduced into the IL-3-dependent, murine macrophage cell line, Ba/F3, and selected for puromycin resistance and IL-3 independence. All cell lines were cloned by limiting dilution and clones were used for all subsequent cell assays.
Briefly, cell lines were serum starved overnight in media containing 0.5% FBS. Cells were plated at 200,000 cells/well in 96-well round bottom plates in low serum, and 3-fold serial dilutions of test compounds were added for 2 hours at 37° C. […] After an overnight incubation at 4° C. shaking at 450 rpm, plates were washed with MSD wash buffer, and captured FLT3 was detected with biotinylated-anti-phosphotyrosine antibody 4G10 (Millipore) and SulfoTAG-streptavidin (MSD) for 1 hour at room temperature, and read on an MSD SECTOR Imager 6000. Percent remaining phospho-FLT3 in compound-treated cells was normalized to DMSO-treated cells, and IC50s were determined using Igor Pro software. All compounds are assayed in duplicate cell and MSD plates.

Take `CC(C)(C)c1cc(NC(=O)Cc2ccc(-c3cnc4[nH]nc(-n5ccnn5)c4c3)cc2)no1` [Example 103, N-(5-tert-butylisoxazol-3-yl)-2-[4-[3-(triazol-1-yl)-1H-pyrazolo[3,4-b]pyridin-5-yl]phenyl]acetamide]: the Kd at KIT kinase and at FLT3 kinase was < 5 nM in each case. Besides, the IC50 at FLT3-ITD was < 10 nM.

For `O=C(Cc1ccc(-c2cnc3[nH]nc(OCCF)c3c2)cc1F)Nc1cc(C2(C(F)(F)F)CC2)on1` [Example 104, 2-[2-fluoro-4-[3-(2-fluoroethoxy)-1H-pyrazolo[3,4-b]pyridin-5-yl]phenyl]-N-[5-[1-(trifluoro-methyl)cyclopropyl]isoxazol-3-yl]acetamide], the Kd on KIT kinase and at FLT3 kinase was < 5 nM each time. The IC50 on FLT3-ITD is < 10 nM.

As for `O=C(Cc1ccc(-c2cnc3[nH]c(C(=O)O)cc3c2)cc1F)Nc1cc(C2(C(F)(F)F)CC2)on1` [Example 106, 5-[3-fluoro-4-[2-oxo-2-[[5-[1-(trifluoromethyl)cyclo-propyl]isoxazol-3-yl]amino]ethyl]phenyl]-1H-pyrrolo[2,3-b]pyridine-2-carboxylic acid], the Kd at KIT kinase and on FLT3 kinase was < 5 nM in each case. Besides, the IC50 on FLT3-ITD was 10 to 20 nM.

Turning to `CS(=O)(=O)CCNC(=O)c1cc2cc(-c3ccc(CC(=O)Nc4cc(C5(C(F)(F)F)CC5)on4)c(F)c3)cnc2[nH]1` [Example 107, 5-[3-fluoro-4-[2-oxo-2-[[5-[1-(trifluoromethyl)cyclo-propyl]isoxazol-3-yl]amino]ethyl]phenyl]-N-(2-methylsulfonylethyl)-1H-pyrrolo[2,3-b]pyridine-2-carboxamide], the Kd at KIT kinase and at FLT3 kinase was < 5 nM in each case. Besides, the IC50 at FLT3-ITD was < 10 nM.

Regarding `CN(C)CCNC(=O)c1cc2cc(-c3ccc(CC(=O)Nc4cc(C5(C(F)(F)F)CC5)on4)c(F)c3)cnc2[nH]1` [Example 108, N-[2-(dimethylamino)ethyl]-5-[3-fluoro-4-[2-oxo-2-[[5-[1-(trifluoromethyl)cyclo-propyl]isoxazol-3-yl]amino]ethyl]phenyl]-1H-pyrrolo[2,3-b]pyridine-2-carboxamide], the Kd on KIT kinase and on FLT3 kinase was < 5 nM throughout. For the same compound, the IC50 on FLT3-ITD was < 10 nM.

Consider `Cn1cc(-c2n[nH]c3ncc(-c4ccc(CC(=O)Nc5cc(C(C)(C)C)on5)cc4)cc23)cn1` [Example 109, N-(5-tert-butylisoxazol-3-yl)-2-[4-[3-(1-methylpyrazol-4-yl)-1H-pyrazolo[3,4-b]pyridin-5-yl]phenyl]acetamide], for which the Kd at KIT kinase and at FLT3 kinase was < 5 nM each time. At FLT3-ITD, the IC50 was < 10 nM.

With `CN(C)C1CCN(C(=O)c2cc3cc(-c4ccc(CC(=O)Nc5cc(C6(C(F)(F)F)CC6)on5)c(F)c4)cnc3[nH]2)C1` (stereo not drawn) [Example 110, 2-[4-[2-[3-(dimethylamino)pyrrolidine-1-carbonyl]-1H-pyrrolo[2,3-b]pyridin-5-yl]-2-fluoro-phenyl]-N-[5-[1-(trifluoro-methyl)cyclopropyl]isoxazol-3-yl]acetamide], the Kd at KIT kinase and at FLT3 kinase was < 5 nM throughout. Also, the IC50 on FLT3-ITD is < 10 nM.

Turning to `O=C(Cc1ccc(-c2cnc3[nH]c(C(=O)N4CC(O)C4)cc3c2)cc1F)Nc1cc(C2(C(F)(F)F)CC2)on1` [Example 111, 2-[2-fluoro-4-[2-(3-hydroxyazetidine-1-carbonyl)-1H-pyrrolo[2,3-b]pyridin-5-yl]phenyl]-N-[5-[1-(trifluoro-methyl)cyclopropyl]isoxazol-3-yl]acetamide], the Kd on KIT kinase and on FLT3 kinase was < 5 nM in each case. For the same compound, the IC50 at FLT3-ITD is < 10 nM.

Consider `O=C(Cc1ccc(-c2cnc3[nH]c(C(=O)NC4CNC4)cc3c2)cc1F)Nc1cc(C2(C(F)(F)F)CC2)on1` [Example 112, N-(azetidin-3-yl)-5-[3-fluoro-4-[2-oxo-2-[[5-[1-(trifluoromethyl)cyclo-propyl]isoxazol-3-yl]amino]ethyl]phenyl]-1H-pyrrolo[2,3-b]pyridine-2-carboxamide], for which the Kd on KIT kinase and on FLT3 kinase was < 5 nM each time. For the same compound, the IC50 on FLT3-ITD is < 10 nM.

As to `CN1CC(NC(=O)c2cc3cc(-c4ccc(CC(=O)Nc5cc(C6(C(F)(F)F)CC6)on5)c(F)c4)cnc3[nH]2)C1` [Example 113, 5-[3-fluoro-4-[2-oxo-2-[[5-[1-(trifluoromethyl)cyclo-propyl]isoxazol-3-yl]amino]ethyl]phenyl]-N-(1-methylazetidin-3-yl)-1H-pyrrolo[2,3-b]pyridine-2-carboxamide], the Kd at KIT kinase and on FLT3 kinase was < 5 nM in each case. The concentration for half-maximal inhibition (IC50) at FLT3-ITD is < 10 nM.

Consider `CC(C)(c1cc(NC(=O)Cc2ccc(-c3cnc4[nH]nc(OCCOC(F)(F)F)c4c3)cc2F)no1)C(F)(F)F` [Example 114, 2-[2-fluoro-4-[3-[2-(trifluoromethoxy)ethoxy]-1H-pyrazolo[3,4-b]pyridin-5-yl]phenyl]-N-[5-(2,2,2-trifluoro-1,1-dimethyl-ethyl)isoxazol-3-yl]acetamide], for which the Kd on KIT kinase was 5 to 20 nM; at FLT3 kinase, < 5 nM. Also, the IC50 on FLT3-ITD was < 10 nM.

Turning to `COc1cc2ncc(-c3ccc(CC(=O)Nc4cc(C(C)(C)C(F)(F)F)on4)c(F)c3)cc2c(OC)c1OC` [Example 115, 2-[2-fluoro-4-(5,6,7-trimethoxy-3-quinolyl)phenyl]-N-[5-(2,2,2-trifluoro-1,1-dimethyl-ethyl)isoxazol-3-yl]acetamide], the Kd on KIT kinase is 5 to 20 nM; at FLT3 kinase, < 5 nM. The IC50 at FLT3-ITD is < 10 nM.

Take `COc1cc2ncc(-c3ccc(CC(=O)Nc4cc(C(C)(C)C)on4)cc3)cc2c(OC)c1OC` [Example 116, N-(5-tert-butylisoxazol-3-yl)-2-[4-(5,6,7-trimethoxy-3-quinolyl)phenyl]acetamide]: the Kd on KIT kinase and on FLT3 kinase was < 5 nM in each case. Besides, the IC50 on FLT3-ITD was < 10 nM.

`CN(C)NC(=O)c1cc2cc(-c3ccc(CC(=O)Nc4cc(C5(C(F)(F)F)CC5)on4)c(F)c3)cnc2[nH]1` [Example 117, 2-[4-[2-(dimethylaminocarbamoyl)-1H-pyrrolo[2,3-b]pyridin-5-yl]-2-fluoro-phenyl]-N-[5-[1-(trifluoro-methyl)cyclopropyl]isoxazol-3-yl]acetamide]: the Kd at KIT kinase and at FLT3 kinase was < 5 nM in each case. The IC50 at FLT3-ITD was < 10 nM.

Take `CCOc1cc2ncc(-c3ccc(CC(=O)Nc4cc(C5(C(F)(F)F)CC5)on4)c(F)c3)nc2cc1OCC` [Example 118, 2-[4-(6,7-diethoxyquinoxalin-2-yl)-2-fluoro-phenyl]-N-[5-[1-(trifluoromethyl)cyclo-propyl]isoxazol-3-yl]acetamide]: the Kd at KIT kinase and on FLT3 kinase was < 5 nM throughout. On FLT3-ITD, the IC50 was < 10 nM.

As for `O=C(Cc1ccc(-c2cnc3cc4c(cc3n2)OCO4)cc1F)Nc1cc(C2(C(F)(F)F)CC2)on1` [Example 119, 2-[4-([1,3]dioxolo[4,5-g]quinoxalin-6-yl)-2-fluoro-phenyl]-N-[5-[1-(trifluoro-methyl)cyclopropyl]isoxazol-3-yl]acetamide], the Kd on KIT kinase and on FLT3 kinase was < 5 nM each time. Further, the 50% inhibitory concentration (IC50) at FLT3-ITD was < 10 nM.

Regarding `COCCOc1cc2ncc(-c3ccc(CC(=O)Nc4cc(C(C)(C)C)on4)cc3)nc2cc1OCCOC` [Example 120, 2-[4-[6,7-bis(2-methoxyethoxy)quinoxalin-2-yl]phenyl]-N-(5-tert-butylisoxazol-3-yl)acetamide], the Kd at KIT kinase and on FLT3 kinase was < 5 nM in each case. Further, the IC50 on FLT3-ITD is < 10 nM.

Take `O=C(Cc1ccc(-c2cnc3cc4c(cc3n2)OC[C@@H](CO)O4)cc1F)Nc1cc(C2(C(F)(F)F)CC2)on1` [Example 121, 2-[2-fluoro-4-[(2R)-2-(hydroxymethyl)-2,3-dihydro-[1,4]dioxino[2,3-g]quinoxalin-7-yl]phenyl]-N-[5-[1-(trifluoro-methyl)cyclopropyl]isoxazol-3-yl]acetamide]: the Kd at KIT kinase and at FLT3 kinase was < 5 nM throughout. Moreover, the IC50 on FLT3-ITD is < 10 nM.

Consider `O=C(Cc1ccc(-c2cnc3cc4c(cc3n2)O[C@H](CO)CO4)cc1F)Nc1cc(C2(C(F)(F)F)CC2)on1` [Example 122, 2-[2-fluoro-4-[(3R)-3-(hydroxymethyl)-2,3-dihydro-[1,4]dioxino[2,3-g]quinoxalin-7-yl]phenyl]-N-[5-[1-(trifluoro-methyl)cyclopropyl]isoxazol-3-yl]acetamide], for which the Kd on KIT kinase and at FLT3 kinase was < 5 nM throughout. In addition, the IC50 at FLT3-ITD is < 10 nM.

As for `COc1cc2nc(N)c(-c3ccc(CC(=O)Nc4cc(C5(C(F)(F)F)CC5)on4)c(F)c3)nc2cc1OC` [Example 123, 2-[4-(3-amino-6,7-dimethoxy-quinoxalin-2-yl)-2-fluoro-phenyl]-N-[5-[1-(trifluoro-methyl)cyclopropyl]isoxazol-3-yl]acetamide], the Kd on KIT kinase and on FLT3 kinase was < 5 nM in each case. Moreover, the IC50 at FLT3-ITD was < 10 nM.

As for `COc1cc2nc(OC)c(-c3ccc(CC(=O)Nc4cc(C5(C(F)(F)F)CC5)on4)c(F)c3)nc2cc1OC` [Example 124, 2-[2-fluoro-4-(3,6,7-trimethoxyquinoxalin-2-yl)phenyl]-N-[5-[1-(trifluoro-methyl)cyclopropyl]isoxazol-3-yl]acetamide], the Kd on KIT kinase was 5 to 20 nM; on FLT3 kinase it was < 5 nM. The IC50 on FLT3-ITD was in the range of 10 to 20 nM.

As for `COCCOc1cc2ncc(-c3ccc(CC(=O)Nc4cc(C5(C(F)(F)F)CC5)on4)c(F)c3)nc2cc1OCCOC` [Example 125, 2-[4-[6,7-bis(2-methoxyethoxy)quinoxalin-2-yl]-2-fluoro-phenyl]-N-[5-[1-(trifluoro-methyl)cyclopropyl]isoxazol-3-yl]acetamide], the Kd at KIT kinase and at FLT3 kinase was < 5 nM throughout. Also, the IC50 at FLT3-ITD was < 10 nM.

In general, Kd refers to the equilibrium constant for the complex coming apart. Read a low Kd as tighter binding. For orientation: IC50 means the concentration needed to halve the response being measured.
